Experimental data published in patent US20190284168A1, “PYRAZOLE DERIVATIES AS SGC STIMULATORS” (IRONWOOD PHARMACEUTICALS, INC., priority 2014, published 2019).

The molecules below were run against T1, soluble guanylate cyclase (sGC) (Homo sapiens, UniProt Q02108+Q02153) (assay: sGC-HEK-cGMP assay with LC/MS detection). Conditions: HEK293 whole cells, LC/MS detection of cGMP, 10 μM DETA-NONOate; 50% of high control response (30 μM Compound Y); read-out: Absolute EC50 (nM)- binned (~).
T1 construct: endogenously expressing soluble guanylate cyclase (sGC); endogenous in cells; host or cells: HEK293
T1 sequence (Q02153 1-619): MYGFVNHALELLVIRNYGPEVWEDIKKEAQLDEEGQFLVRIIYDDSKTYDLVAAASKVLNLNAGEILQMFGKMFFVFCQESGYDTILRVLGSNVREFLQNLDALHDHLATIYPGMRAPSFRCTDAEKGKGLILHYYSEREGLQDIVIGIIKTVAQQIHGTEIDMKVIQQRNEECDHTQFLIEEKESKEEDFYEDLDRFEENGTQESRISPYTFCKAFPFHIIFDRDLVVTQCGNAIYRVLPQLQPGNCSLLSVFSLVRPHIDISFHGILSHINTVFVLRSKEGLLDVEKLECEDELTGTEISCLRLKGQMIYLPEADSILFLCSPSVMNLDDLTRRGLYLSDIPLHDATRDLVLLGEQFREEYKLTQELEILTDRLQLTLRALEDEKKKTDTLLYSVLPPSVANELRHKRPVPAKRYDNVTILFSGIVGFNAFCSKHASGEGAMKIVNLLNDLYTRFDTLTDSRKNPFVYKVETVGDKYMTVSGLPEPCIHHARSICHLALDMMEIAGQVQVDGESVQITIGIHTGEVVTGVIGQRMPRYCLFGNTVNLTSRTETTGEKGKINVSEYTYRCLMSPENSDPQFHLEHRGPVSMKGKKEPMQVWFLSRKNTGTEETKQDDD
T1 sequence (Q02108 1-690): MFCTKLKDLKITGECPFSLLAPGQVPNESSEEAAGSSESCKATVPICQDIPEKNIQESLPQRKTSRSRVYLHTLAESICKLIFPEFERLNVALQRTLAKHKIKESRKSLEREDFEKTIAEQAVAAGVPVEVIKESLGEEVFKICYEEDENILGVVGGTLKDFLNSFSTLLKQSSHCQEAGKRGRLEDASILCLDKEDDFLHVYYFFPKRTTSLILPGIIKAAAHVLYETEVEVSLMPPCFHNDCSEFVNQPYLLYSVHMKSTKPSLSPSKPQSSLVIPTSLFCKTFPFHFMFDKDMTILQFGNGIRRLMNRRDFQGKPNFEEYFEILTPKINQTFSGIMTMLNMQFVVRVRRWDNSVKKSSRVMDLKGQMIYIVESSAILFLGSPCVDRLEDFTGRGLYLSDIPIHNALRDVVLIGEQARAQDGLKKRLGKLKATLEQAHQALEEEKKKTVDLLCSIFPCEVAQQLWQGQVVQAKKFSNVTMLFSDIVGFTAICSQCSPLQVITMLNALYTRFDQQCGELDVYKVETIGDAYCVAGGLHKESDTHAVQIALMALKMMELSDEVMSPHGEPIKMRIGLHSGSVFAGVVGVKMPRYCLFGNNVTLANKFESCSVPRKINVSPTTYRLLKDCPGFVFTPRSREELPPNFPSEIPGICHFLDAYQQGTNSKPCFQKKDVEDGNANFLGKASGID
Assay type: cell-based

| EC50 [nM] | Compound |
| --- | --- |
| 100 to 1000 | CC(=O)c1cc(-c2ncc(F)c(NCCCCC(=O)O)n2)nn1Cc1ccccc1F [Compound 87] |
| 100 to 1000 | CC(=O)c1cc(-c2ncc(F)c(N3CCC(S(N)(=O)=O)CC3)n2)nn1Cc1ccccc1F [Compound 88] |
| 100 to 1000 | CC(=O)c1cc(-c2ncc(F)c(N3CC(C)C(C(=O)O)C3)n2)nn1Cc1ccccc1F (centres unmarked) [Compound 89] |
| < 100 | CC(=O)c1cc(-c2ncc(F)c(N(C)CC3(C(=O)O)CCCC3)n2)nn1Cc1ccccc1F [Compound 90] |
| 100 to 1000 | CC(=O)c1cc(-c2ncc(F)c(N(C)C)n2)nn1Cc1ccccc1F [Compound 91] |
| > 1000 | CC(=O)c1cc(-c2ncc(F)c(N3CCCC3)n2)nn1Cc1ccccc1F [Compound 92] |
| 100 to 1000 | CC(=O)c1cc(-c2ncc(F)c(N3CCCCC3)n2)nn1Cc1ccccc1F [Compound 93] |
| > 1000 | CC(=O)c1cc(-c2ncc(F)c(N3CCNCC3)n2)nn1Cc1ccccc1F [Compound 94] |
| 100 to 1000 | CC(=O)c1cc(-c2ncc(F)c(N3CCOCC3)n2)nn1Cc1ccccc1F [Compound 95] |
| 100 to 1000 | CC(=O)c1cc(-c2ncc(F)c(NS(=O)(=O)CCC(F)(F)F)n2)nn1Cc1ccccc1F [Compound 96] |
| > 1000 | CCCS(=O)(=O)Nc1nc(-c2cc(C(C)=O)n(Cc3ccccc3F)n2)ncc1F [Compound 97] |
| > 1000 | CC(=O)c1cc(-c2ncc(F)c(NS(=O)(=O)c3ccccc3)n2)nn1Cc1ccccc1F [Compound 98] |
| 100 to 1000 | CC(=O)c1cc(-c2ncc(F)c(N(C)CC3(C(N)=O)CC3)n2)nn1Cc1ccccc1F [Compound 99] |
| 100 to 1000 | NC(=O)C(O)(CNc1nc(-c2cc(-c3ncco3)n(Cc3ccccc3F)n2)ncc1F)C(F)(F)F (centres unmarked) [Compound 102] |
| 100 to 1000 | OC(CNc1nc(-c2cc(-c3ncco3)n(Cc3ccccc3F)n2)ncc1F)(C(F)(F)F)C(F)(F)F [Compound 103] |
| > 30000 | COCc1cc(-c2ncc(F)c(O)n2)nn1Cc1ccccc1F [Compound 105] |
| < 100 | C[C@@](N)(CNc1nc(-c2cc(-c3ccon3)n(Cc3ccccc3F)n2)ncc1F)C(F)(F)F [Compound 106] |
| < 100 | C[C@@](CNc1nc(-c2cc(-c3ccon3)n(Cc3ccccc3F)n2)ncc1F)(N[C@@H](CO)c1ccccc1)C(F)(F)F [Compound 107] |
| 100 to 1000 | CC(=O)c1cc(-c2ncc(F)c(N3CCC4(CCOCC4)C3)n2)nn1Cc1ccccc1F [Compound 112] |
| 100 to 1000 | CC(=O)c1cc(-c2ncc(F)c(N3CCC4(CC3)COC4)n2)nn1Cc1ccccc1F [Compound 113] |
| > 1000 | CC(=O)c1cc(-c2ncc(F)c(N3CC(F)(F)C3)n2)nn1Cc1ccccc1F [Compound 114] |
| > 1000 | CC(=O)c1cc(-c2ncc(F)c(N3CCS(=O)(=O)C(C)(C)C3)n2)nn1Cc1ccccc1F [Compound 115] |

| EC50 [nM] | Compound |
| --- | --- |
| 100 to 1000 | CC(=O)c1cc(-c2ncc(F)c(N3CC[C@H](O)[C@H](O)C3)n2)nn1Cc1ccccc1F [Compound 116] |
| 100 to 1000 | CC(=O)c1cc(-c2ncc(F)c(N3CCC(O)C(CO)C3)n2)nn1Cc1ccccc1F (centres unmarked) [Compound 117] |
| > 1000 | CC(=O)c1cc(-c2ncc(F)c(N3CC4(COC4)C3)n2)nn1Cc1ccccc1F [Compound 118] |
| > 1000 | CC(=O)c1cc(-c2ncc(F)c(N3CCCS3(=O)=O)n2)nn1Cc1ccccc1F [Compound 119] |
| > 30000 | CC(=O)c1cc(-c2ncc(F)c(N3CCN(S(C)(=O)=O)CC3)n2)nn1Cc1ccccc1F [Compound 120] |
| > 1000 | CC(=O)c1cc(-c2ncc(F)c(N3CC(NC(=O)C(F)(F)F)C3)n2)nn1Cc1ccccc1F [Compound 121] |
| > 1000 | CC(=O)c1cc(-c2ncc(F)c(N3CC(NC(=O)C4(O)CC4)C3)n2)nn1Cc1ccccc1F [Compound 122] |
| 100 to 1000 | CC(=O)c1cc(-c2ncc(F)c(NC3CCCCC3C(=O)O)n2)nn1Cc1ccccc1F (centres unmarked) [Compound 123] |
| > 1000 | CC(=O)c1cc(-c2ncc(F)c(NCCO)n2)nn1Cc1ccccc1F [Compound 125] |
| > 30000 | CC(=O)c1cc(-c2ncc(F)c(Nc3nnc(C(F)(F)F)s3)n2)nn1Cc1ccccc1F [Compound 126] |
| < 100 | OCC(CCCC(F)(F)F)Nc1nc(-c2cc(-c3ccon3)n(Cc3ccccc3F)n2)ncc1F (centres unmarked) [Compound 127, 6,6,6-trifluoro-2-((5-fluoro-2-(1-(2-fluorobenzyl)-5-(isoxazol-3-yl)-1H-pyrazol-3-yl)pyrimidin-4-yl)amino)hexan-1-ol] |
| > 1000 | CCC(C)(N)CNc1nc(-c2cc(C(C)=O)n(Cc3ccccc3F)n2)ncc1F (centres unmarked) [Compound 129, 1-(3-(4-((2-amino-2-methylbutyl)amino)-5-fluoropyrimidin-2-yl)-1-(2-fluorobenzyl)-1H-pyrazol-5-yl)ethanone] |
| 100 to 1000 | C[C@@](CNc1nc(-c2cc(-c3ccon3)n(Cc3ccccc3F)n2)ncc1F)(NC(CO)c1ccccc1)C(F)(F)F (stereo partly drawn) [Compound 130, 2-phenyl-2-(((S)-1,1,1-trifluoro-3-((5-fluoro-2-(1-(2-fluorobenzyl)-5-(isoxazol-3-yl)-1H-pyrazol-3-yl)pyrimidin-4-yl)amino)-2-methylpropan-2-yl)amino)ethanol] |
| 100 to 1000 | C[C@](CNc1nc(-c2cc(-c3ccon3)n(Cc3ccccc3F)n2)ncc1F)(NC(CO)c1ccccc1)C(F)(F)F (stereo partly drawn) [Compound 131, 2-phenyl-2-(((R)-1,1,1-trifluoro-3-((5-fluoro-2-(1-(2-fluorobenzyl)-5-(isoxazol-3-yl)-1H-pyrazol-3-yl)pyrimidin-4-yl)amino)-2-methylpropan-2-yl)amino)ethanol] |
| 100 to 1000 | CC(=O)c1cc(-c2ncc(F)c(N3CC(C(=O)O)C(C)(C)C3)n2)nn1Cc1ccccc1F (centres unmarked) [Compound 136, 1-(2-(5-acetyl-1-(2-fluorobenzyl)-1H-pyrazol-3-yl)-5-fluoropyrimidin-4-yl)-4,4-dimethylpyrrolidine-3-carboxylic acid] |
| 100 to 1000 | CC(=O)c1cc(-c2ncc(F)c(N[C@@H]3CCCC[C@H]3C(=O)O)n2)nn1Cc1ccccc1F [Compound 137, (1R,2R)-2-((2-(5-acetyl-1-(2-fluorobenzyl)-1H-pyrazol-3-yl)-5-fluoropyrimidin-4-yl)amino)cyclohex anecarboxylic acid] |
| 100 to 1000 | CC(=O)c1cc(-c2ncc(F)c(N[C@@H](CC(=O)O)C(C)C)n2)nn1Cc1ccccc1F [Compound 138, (S)-3-((2-(5-acetyl-1-(2-fluorobenzyl)-1H-pyrazol-3-yl)-5-fluoropyrimidin-4-yl)amino)-4-methylpentanoic acid] |
| 100 to 1000 | CC(=O)c1cc(-c2ncc(F)c(N3CCC(C(=O)O)(c4ccccc4)CC3)n2)nn1Cc1ccccc1F [Compound 139, 1-(2-(5-acetyl-1-(2-fluorobenzyl)-1H-pyrazol-3-yl)-5-fluoropyrimidin-4-yl)-4-phenylpiperidine-4-carboxylic acid] |
| > 1000 | CCN(CC)c1nc(-c2cc(-c3ncco3)n(Cc3ccccc3F)n2)ncc1F [Compound 140] |
| > 1000 | COC1=CC(=O)N(c2nc(-c3cc(-c4ccon4)n(Cc4ccccc4F)n3)ncc2F)C1 [Compound 147, 1-(5-fluoro-2-(1-(2-fluorobenzyl)-5-(isoxazol-3-yl)-1H-pyrazol-3-yl)pyrimidin-4-yl)-4-methoxy-1H-pyrrol-2(5H)-one] |
| < 100 | CC(C)[C@H](CO)Nc1nc(-c2cc(-c3ccon3)n(Cc3ccccc3F)n2)ncc1F [Compound 148, (R)-2-((5-fluoro-2-(1-(2-fluorobenzyl)-5-(isoxazol-3-yl)-1H-pyrazol-3-yl)pyrimidin-4-yl)amino)-3-methylbutan-1-ol] |
| < 100 | CC(C)C[C@H](CO)Nc1nc(-c2cc(-c3ccon3)n(Cc3ccccc3F)n2)ncc1F [Compound 149, (R)-2-((5-fluoro-2-(1-(2-fluorobenzyl)-5-(isoxazol-3-yl)-1H-pyrazol-3-yl)pyrimidin-4-yl)amino)-4-m ethylpentan-1-ol] |
